Test results taken from paper doi:10.1101/2022.10.06.511132v1, “Development of Enterovirus anti-viral agents that target the viral 2C protein” (biorxiv, 2022).

How the values were obtained:
EV-A71 Δ2C^116-329 = target: T1, EV-A71 Δ2C^116-329 (Enterovirus A71, UniProt B9VUU3); assay: malachite green ATPase assay; assay type: biochemical
T1 construct: N-terminally truncated mature protein 2C residues 116-329, cut from the genome polyprotein; N-terminal MBP tag and C-terminal His6 (kept, MBP-Δ2C-(His)6); codon-optimised synthetic gene in pMALc5x, E. coli Rosetta 2(DE3) pLysS; active as hexamer
T1 sequence (B9VUU3 1227-1440, stated change not applied): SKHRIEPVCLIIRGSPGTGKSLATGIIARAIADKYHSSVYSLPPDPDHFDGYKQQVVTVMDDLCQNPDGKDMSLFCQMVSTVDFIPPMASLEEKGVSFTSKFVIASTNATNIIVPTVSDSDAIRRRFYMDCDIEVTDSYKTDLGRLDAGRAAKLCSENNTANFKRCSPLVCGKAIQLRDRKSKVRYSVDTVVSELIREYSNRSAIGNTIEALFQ

EV-A71 [1] = assay: microbe, parasite or virus in culture; parameters: NIAID secondary assay, neutral red cytopathic effect reduction; conditions: Enterovirus A, EV71 / EVA71, read-out: EC50 µM, EV-71 neutral red
EV-A71 [2] = assay: microbe, parasite or virus in culture; parameters: NIAID secondary assay, virus yield reduction, visual titre; conditions: Enterovirus A, EV71 / EVA71, read-out: EC90 µM, EV-71 VYR
EV-68 (EV-D68) [3] = assay: microbe, parasite or virus in culture; parameters: NIAID secondary assay, neutral red cytopathic effect reduction; conditions: Enterovirus D, read-out: EC50 µM, EV-68 neutral red
EV-68 (EV-D68) [4] = assay: microbe, parasite or virus in culture; parameters: NIAID secondary assay, virus yield reduction, visual titre; conditions: Enterovirus D, read-out: EC90 µM, EV-68 VYR

Compound | IC50 (EV-A71 Δ2C^116-329) | EC50 (EV-A71 [1]) | EC90 (EV-A71 [2]) | EC50 (EV-68 (EV-D68) [3]) | EC90 (EV-68 (EV-D68) [4])
Cc1ccc2[nH]c(-c3ccc(NC(=O)c4cccs4)cc3)nc2c1 [SJW-2C-227] | 23.4 µM | 1.7 µM | 3.2 µM | 0.52 µM | 0.59 µM
Cc1ccc2[nH]c(-c3ccc(NC(=O)c4ccc(C)c(C)c4)cc3)nc2c1 [SJW-2C-234] | 55 µM |  |  |  | 
O=C(Nc1ccc(-c2nc3cc4ccccc4cc3[nH]2)cc1)c1cccc(Br)c1 [SJW-2C-239] | 33.1 µM |  |  |  | 
